Measurements as given in patent US10253052B2, “HBED-bisphosphonates, radiometal conjugates and their use as theranostic agents” (Five Eleven Pharma Inc., priority 2015, dated 2019).
Several values for one entry are separate records, joined by “and”; a condition that tells them apart may be missing. Equal values may be shown once. Marks after values point to notes of the source that are not given here.

Assays:
[1] = In vivo biodistribution in mice; design: species or system normal CD-1 male mice; conditions: for bone to blood ratio / bone to muscle ratio / Biodistribution: Blood / Biodistribution: Bone / Biodistribution: Brain / Biodistribution: Heart / Biodistribution: Kidney / Biodistribution: Liver / Biodistribution: Lung / Biodistribution: Muscle / Biodistribution: Pancreas / Biodistribution: Skin / Biodistribution: Spleen: iv
In short: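 Normal male CD-1 mice (25-30 g) received 20-30 μCi of ^68Ga-labelled tracer or [^18F]NaF intravenously and were sacrificed at 2, 30, 60 and 120 min. Harvested organs, with tibia and femur as bone, were weighed and gamma-counted; uptake is expressed as % ID/g wet tissue.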

[2] = In vitro binding to hydroxyapatite; conditions: 20 mg hydroxyapatite in saline, 10 min at room temperature
In short: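 Hydroxyapatite was pre-incubated 24 h in isotonic saline, then ^68Ga-labelled compound (1 μCi) was added and incubated 10 min at room temperature. After centrifugation and two saline washes, gamma counting of supernatants and solid gave percent ^68Ga bound to hydroxyapatite.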

O=C([O-])CN(CCN(CC(=O)[O-])Cc1cc(CCC(=O)O)ccc1[O-])Cc1cc(CCC(=O)O)ccc1[O-].[68Ga+3] [[^68Ga]HBED-CC, reference compound]
bone to blood ratio ([1]; 2 min): 0.2
bone to muscle ratio ([1]; 2 min): 0.8
Biodistribution: Blood ([1]; 2 min post injection): 7.66 ± 0.75 % dose/g
Biodistribution: Bone ([1]; 2 min post injection): 1.85 ± 0.05 % dose/g
Biodistribution: Brain ([1]; 2 min post injection): 0.29 ± 0.08 % dose/g
Biodistribution: Heart ([1]; 2 min post injection): 2.74 ± 0.34 % dose/g
Biodistribution: Kidney ([1]; 2 min post injection): 27.2 ± 0.64 % dose/g
Biodistribution: Liver ([1]; 2 min post injection): 1.75 ± 0.08 % dose/g
Biodistribution: Lung ([1]; 2 min post injection): 4.27 ± 0.34 % dose/g
Biodistribution: Muscle ([1]; 2 min post injection): 2.30 ± 0.13 % dose/g
Biodistribution: Pancreas ([1]; 2 min post injection): 1.60 ± 0.12 % dose/g
Biodistribution: Skin ([1]; 2 min post injection): 3.18 ± 0.43 % dose/g
Biodistribution: Spleen ([1]; 2 min post injection): 1.69 ± 0.18 % dose/g
bone to blood ratio ([1]; 30 min): 0.3
bone to muscle ratio ([1]; 30 min): 0.9
Biodistribution: Blood ([1]; 30 min (0.5 hr) post injection): 0.83 ± 0.09 % dose/g
Biodistribution: Bone ([1]; 30 min (0.5 hr) post injection): 0.28 ± 0.06 % dose/g
Biodistribution: Brain ([1]; 30 min (0.5 hr) post injection): 0.04 ± 0.01 % dose/g
Biodistribution: Heart ([1]; 30 min (0.5 hr) post injection): 0.34 ± 0.06 % dose/g
Biodistribution: Kidney ([1]; 30 min (0.5 hr) post injection): 3.22 ± 0.41 % dose/g
Biodistribution: Liver ([1]; 30 min (0.5 hr) post injection): 0.38 ± 0.08 % dose/g
Biodistribution: Lung ([1]; 30 min (0.5 hr) post injection): 0.58 ± 0.07 % dose/g
Biodistribution: Muscle ([1]; 30 min (0.5 hr) post injection): 0.32 ± 0.06 % dose/g
Biodistribution: Pancreas ([1]; 30 min (0.5 hr) post injection): 0.26 ± 0.01 % dose/g
Biodistribution: Skin ([1]; 30 min (0.5 hr) post injection): 0.64 ± 0.08 % dose/g
Biodistribution: Spleen ([1]; 30 min (0.5 hr) post injection): 0.26 ± 0.04 % dose/g
bone to blood ratio ([1]; 60 min): 1.7
bone to muscle ratio ([1]; 60 min): 2.3
Biodistribution: Blood ([1]; 60 min (1 hr) post injection): 0.14 ± 0.04 % dose/g
Biodistribution: Bone ([1]; 60 min (1 hr) post injection): 0.25 ± 0.16 % dose/g
Biodistribution: Brain ([1]; 60 min (1 hr) post injection): 0.02 ± 0.01 % dose/g
Biodistribution: Heart ([1]; 60 min (1 hr) post injection): 0.17 ± 0.11 % dose/g
Biodistribution: Kidney ([1]; 60 min (1 hr) post injection): 0.91 ± 0.32 % dose/g
Biodistribution: Liver ([1]; 60 min (1 hr) post injection): 0.11 ± 0.02 % dose/g
Biodistribution: Lung ([1]; 60 min (1 hr) post injection): 0.19 ± 0.04 % dose/g
Biodistribution: Muscle ([1]; 60 min (1 hr) post injection): 0.11 ± 0.04 % dose/g
Biodistribution: Pancreas ([1]; 60 min (1 hr) post injection): 0.13 ± 0.05 % dose/g
Biodistribution: Skin ([1]; 60 min (1 hr) post injection): 0.09 ± 0.07 % dose/g
Biodistribution: Spleen ([1]; 60 min (1 hr) post injection): 0.12 ± 0.02 % dose/g
bone to blood ratio ([1]; 120 min): 12
bone to muscle ratio ([1]; 120 min): 3.3
Biodistribution: Blood ([1]; 120 min post injection): 0.01 ± 0.00 % dose/g
Biodistribution: Bone ([1]; 120 min post injection): 0.18 ± 0.06 % dose/g
Biodistribution: Brain ([1]; 120 min post injection): 0.02 ± 0.00 % dose/g
Biodistribution: Heart ([1]; 120 min post injection): 0.09 ± 0.00 % dose/g
Biodistribution: Kidney ([1]; 120 min post injection): 0.08 ± 0.05 % dose/g
Biodistribution: Liver ([1]; 120 min post injection): 0.04 ± 0.02 % dose/g
Biodistribution: Lung ([1]; 120 min post injection): 0.07 ± 0.02 % dose/g
Biodistribution: Muscle ([1]; 120 min post injection): 0.05 ± 0.02 % dose/g
Biodistribution: Pancreas ([1]; 120 min post injection): 0.07 ± 0.01 % dose/g
Biodistribution: Skin ([1]; 120 min post injection): 0.03 ± 0.01 % dose/g
Biodistribution: Spleen ([1]; 120 min post injection): 0.13 ± 0.03 % dose/g
Hydroxyapatite Binding (%) [2]: 0.4±0.1%

O=C([O-])CN1CCN(CC(=O)[O-])CCN(CC(=O)NCCNC(=O)CCc2ccc(O)c(CN(CCN(CC(=O)O)Cc3cc(CCC(=O)NC(P(=O)(O)O)P(=O)(O)O)ccc3O)CC(=O)O)c2)CCN(CC(=O)[O-])CC1.[177Lu+3] [[^177Lu]1h]
bone to blood ratio ([1]; 30 min): 24
bone to muscle ratio ([1]; 30 min): 41
Biodistribution: Blood ([1]; 30 min (0.5 hr) post injection): 0.54 ± 0.11 % dose/g
Biodistribution: Bone ([1]; 30 min (0.5 hr) post injection): 12.4 ± 1.19 % dose/g
Biodistribution: Brain ([1]; 30 min (0.5 hr) post injection): 0.03 ± 0.01 % dose/g
Biodistribution: Heart ([1]; 30 min (0.5 hr) post injection): 0.23 ± 0.05 % dose/g
Biodistribution: Kidney ([1]; 30 min (0.5 hr) post injection): 1.21 ± 0.94 % dose/g
Biodistribution: Liver ([1]; 30 min (0.5 hr) post injection): 0.20 ± 0.03 % dose/g
Biodistribution: Lung ([1]; 30 min (0.5 hr) post injection): 1.35 ± 1.52 % dose/g
Biodistribution: Muscle ([1]; 30 min (0.5 hr) post injection): 0.39 ± 0.24 % dose/g
Biodistribution: Pancreas ([1]; 30 min (0.5 hr) post injection): 0.15 ± 0.03 % dose/g
Biodistribution: Skin ([1]; 30 min (0.5 hr) post injection): 0.41 ± 0.12 % dose/g
Biodistribution: Spleen ([1]; 30 min (0.5 hr) post injection): 0.15 ± 0.04 % dose/g
bone to blood ratio ([1]; 60 min): 97
bone to muscle ratio ([1]; 60 min): 200
Biodistribution: Blood ([1]; 60 min (1 hr) post injection): 0.12 ± 0.02 % dose/g
Biodistribution: Bone ([1]; 60 min (1 hr) post injection): 11.4±0.3 % dose/g and 11.4 ± 0.31 % dose/g
Biodistribution: Brain ([1]; 60 min (1 hr) post injection): 0.01 ± 0.00 % dose/g
Biodistribution: Heart ([1]; 60 min (1 hr) post injection): 0.08 ± 0.02 % dose/g
Biodistribution: Kidney ([1]; 60 min (1 hr) post injection): 1.48 ± 0.60 % dose/g
Biodistribution: Liver ([1]; 60 min (1 hr) post injection): 0.13 ± 0.03 % dose/g
Biodistribution: Lung ([1]; 60 min (1 hr) post injection): 0.20 ± 0.05 % dose/g
Biodistribution: Muscle ([1]; 60 min (1 hr) post injection): 0.06 ± 0.01 % dose/g
Biodistribution: Pancreas ([1]; 60 min (1 hr) post injection): 0.07 ± 0.02 % dose/g
Biodistribution: Skin ([1]; 60 min (1 hr) post injection): 0.11 ± 0.03 % dose/g
Biodistribution: Spleen ([1]; 60 min (1 hr) post injection): 0.07 ± 0.01 % dose/g
Biodistribution: Blood ([1]; 6 hr post injection): 0.016 ± 0.007 % dose/g
Biodistribution: Bone ([1]; 6 hr post injection): 12.7 ± 0.90 % dose/g
Biodistribution: Brain ([1]; 6 hr post injection): 0.003 ± 0.003 % dose/g
Biodistribution: Heart ([1]; 6 hr post injection): 0.024 ± 0.005 % dose/g
Biodistribution: Kidney ([1]; 6 hr post injection): 0.686 ± 0.191 % dose/g
Biodistribution: Liver ([1]; 6 hr post injection): 0.088 ± 0.021 % dose/g
Biodistribution: Lung ([1]; 6 hr post injection): 0.062 ± 0.006 % dose/g
Biodistribution: Muscle ([1]; 6 hr post injection): 0.031 ± 0.011 % dose/g
Biodistribution: Pancreas ([1]; 6 hr post injection): 0.021 ± 0.001 % dose/g
Biodistribution: Skin ([1]; 6 hr post injection): 0.052 ± 0.006 % dose/g
Biodistribution: Spleen ([1]; 6 hr post injection): 0.038 ± 0.005 % dose/g
bone to blood ratio ([1]; 6 hr post-injection): 909^a
bone to muscle ratio ([1]; 6 hr post-injection): 454^a
Biodistribution: Blood ([1]; 24 hr post injection): 0.003 ± 0.001 % dose/g
Biodistribution: Bone ([1]; 24 hr post injection): 11.6 ± 1.14 % dose/g
Biodistribution: Brain ([1]; 24 hr post injection): 0.014 ± 0.016 % dose/g
Biodistribution: Heart ([1]; 24 hr post injection): 0.014 ± 0.003 % dose/g
Biodistribution: Kidney ([1]; 24 hr post injection): 0.411 ± 0.125 % dose/g
Biodistribution: Liver ([1]; 24 hr post injection): 0.068 ± 0.013 % dose/g
Biodistribution: Lung ([1]; 24 hr post injection): 0.040 ± 0.003 % dose/g
Biodistribution: Muscle ([1]; 24 hr post injection): 0.021 ± 0.005 % dose/g
Biodistribution: Pancreas ([1]; 24 hr post injection): 0.013 ± 0.005 % dose/g
Biodistribution: Skin ([1]; 24 hr post injection): 0.042 ± 0.008 % dose/g
Biodistribution: Spleen ([1]; 24 hr post injection): 0.034 ± 0.005 % dose/g
bone to blood ratio ([1]; 24 hr post-injection): 4312^b^
bone to muscle ratio ([1]; 24 hr post-injection): 572^b
Biodistribution result in words (organ uptake, retention, excretion) ([1]; normal mice after iv injection): excellent bone uptake, retention in bone and fast kidney excretion
Hydroxyapatite Binding (%) [2]: 90.9 ± 1.1%
